Data on six compounds can be found in patent US8585942B2, “Process and arrangement for producing particles utilizing subcritical fluids” (XSpray Microparticles AB, priority 2007, dated 2013).

Data set [1] in a line: Particle size characterisation by laser diffraction (Mastersizer 2000). The class given is physicochemical. Conditions: budesonide particles; for Particle size distribution D(0.1′): diameter for the smallest particles up to 10% of the material analyzed; for Particle size distribution d(0.5)′ (mean particle size): diameter for the smallest particles up to 50% of the material analyzed; for Particle size distribution d(0.9)′: diameter for the smallest particles up to 90% of the material analyzed. The source says:
The terms “particle size”, “particle size diameter” and “particle size distribution” in this specification refer to values obtained as given in the Experimental Part (laser diffraction by the use of Mastersizer 2000 from Malvern Instruments Ltd, Worcestershire, United Kindom). For the meaning of “mean particle size” or “mean particle diameter” see also the Experimental Part.
A 2% w/v budesonide solution in acetone was introduced into the nozzle of FIG. 2 placed in the arrangement of FIG. 1 (except for the recycling capability) using a separate high-performance liquid chromatography pump 1.4 ml/min, together with the 125 g/min scCO2 (about 150 ml/min) which was modified with the make-up agent 4.2 ml/min acetone. The pressure in the system was 100 atm. and temperature was at 60° C. All of the streams contact within the nozzle and the budesonide powder formed and collected in the particle collecting chamber. The scCO2 and acetone was drained via the backpressure regulator outlet. Then, a further washing process was performed to eliminate the solvent mixed in the scCO2. After the washing process, the CO2 was slowly drained off from the chamber. Once the CO2 had been completely removed, the particles on the filter and on the wall were collected for analysis. The particles were characterized by laser diffraction in Mastersizer 2000 (Malvern Instruments Ltd, Worcestershire, United Kingdom).

Data set [2] is described as follows: Particle morphology and size by scanning electron microscope (TM-1000 Hitachi). It counts as physicochemical. Conditions: Example 6: solvent acetone, fluid water 10 ml/min, solution 0.2 ml/min, coaxial tube nozzle (FIG. 6). The method, then: It had two high pressure pumps (Jasco PU 980). One of the pump (624b) is used to feed the solution (0.2 ml/min Piroxicam in acetone (2% w/v)) (602) via a transport conduit (621) and the other pump (624a) is used to feed 10 ml/min water (fluid, anti-solvent) (603) via transport conduit (616) to a spray nozzle (601) placed in a particle collection chamber (605) containing at its outlet (625) a function for separating particles (filter) (615). The nozzle internal transport conduits were two stainless steel tubes (610,612) that were placed coaxially to each other with the inner one (612) connected to the pump (624b) for the solution and the outer one (610) to the pump (624a) for fluid. […] Particle sizes were determined to be less than 3 μm. […]
A high pressure pump (Thar P50) (724a) is used to feed 50 ml/min water (fluid, anti-solvent) (703) via a transport conduit (716) and a high pressure pump (Jasco PU 980) (724b) is used to feed 1 ml/min solution of Piroxicam in acetone (2% w/v) (702) via transport conduit (721) to a nozzle (701) placed in a particle collecting chamber (705) containing at its outlet (725) a particle separation function in the form of a filter cup (715). […] The morphology and size of the crystals in the filter cup is determined using TM1000 Hitachi scanning electron microscope. Particle sizes were determined to be between 0.5 μm to 2 μm. […]

The structures appear in SMILES notation.

As to `CCCC1O[C@@H]2C[C@H]3[C@@H]4CCC5=CC(=O)C=C[C@]5(C)[C@H]4[C@@H](O)C[C@]3(C)[C@]2(C(=O)CO)O1` (stereo partly drawn) [Example 1, budesonide], in data set [1], the “Spec. Surface Area” value worked out at 1.7 m^2/g, the “Particle size distribution D(0.1′)” value was “≦1.9 μm”, the “Particle size distribution d(0.5)′ (mean particle size)” value (from here on “Particle size distribution d(0.5)′”) was “≦4.0 μm” and the “Particle size distribution d(0.9)′” value is reported as “≦7.9 μm”.

For the compound `CCCC1O[C@@H]2C[C@H]3[C@@H]4CCC5=CC(=O)C=C[C@]5(C)[C@H]4[C@@H](O)C[C@]3(C)[C@]2(C(=O)CO)O1` (stereo partly drawn) [Example 2, budesonide], in data set [1], the “Spec. Surface Area” value worked out at 1.7 m^2/g, the “Particle size distribution D(0.1′)” value is recorded as “≦1.1 μm”, the “Particle size distribution d(0.5)′” value is given as “≦1.9 μm” and the “Particle size distribution d(0.9)′” value was “≦3.4 μm”.

Turning to `CCCC1O[C@@H]2C[C@H]3[C@@H]4CCC5=CC(=O)C=C[C@]5(C)[C@H]4[C@@H](O)C[C@]3(C)[C@]2(C(=O)CO)O1` (stereo partly drawn) [Example 3, budesonide], in data set [1], the “Spec. Surface Area” value came to 1.6 m^2/g, the “Particle size distribution D(0.1′)” value is listed as “≦2.2 μm”, the “Particle size distribution d(0.5)′” value is on record as “≦4.2 μm” and the “Particle size distribution d(0.9)′” value is given as “≦8.7 μm”.

In the case of `CCCC1O[C@@H]2C[C@H]3[C@@H]4CCC5=CC(=O)C=C[C@]5(C)[C@H]4[C@@H](O)C[C@]3(C)[C@]2(C(=O)CO)O1` (stereo partly drawn) [Example 4, budesonide], in data set [1], the “Spec. Surface Area” value is 0.6 m^2/g, the “Particle size distribution D(0.1′)” value is given as “≦6.3 μm”, the “Particle size distribution d(0.5)′” value was “≦14.2 μm” and the “Particle size distribution d(0.9)′” value is “≦26.7 μm”.

`CCCC1O[C@@H]2C[C@H]3[C@@H]4CCC5=CC(=O)C=C[C@]5(C)[C@H]4[C@@H](O)C[C@]3(C)[C@]2(C(=O)CO)O1` (stereo partly drawn) [Example 5, budesonide]: in data set [1], the “Spec. Surface Area” value is reported as 1.7 m^2/g, the “Particle size distribution D(0.1′)” value is on record as “≦2.0 μm”, the “Particle size distribution d(0.5)′” value is “≦4.1 μm” and the “Particle size distribution d(0.9)′” value is “≦7.9 μm”.

As to `CN1C(C(=O)Nc2ccccn2)=C(O)c2ccccc2S1(=O)=O` [Piroxicam], the Particle sizes entry in data set [2] is given as “less than 3 μm”.
